Experimental data as given in patent US4505897A, “Cyclic pentapeptides displaying somatostatin antagonism and method of treatment of mammals therewith” (The Administrators of the Tulane Educational Fund, priority 1983, dated 1985).
Non-standard residues stand in square brackets, D forms with d. Residues, ends and D or L forms follow the SMILES beside them. *: point of attachment. Bn = c1ccc(C*)cc1

Key:
plasma GH levels = experiment: Peptide effects on NEMBUTAL-stimulated GH levels in anesthetized rats (sc bolus, jugular blood, RIA); type: in vivo, rat
Method: (§1) In this evaluation, the procedures described by W. A. Murphy et al., Endocrinology, 109:491-495 (1980), were employed.
In growth hormone (GH) experiments, male rats (Charles Rivers) were anesthetized with NEMBUTAL® (5 mg per 100 g/BW) which also served to maintain stimulated plasma GH levels. Exactly 30 minutes after the rats were anesthetized, 0.5 ml of saline or the test peptide in saline was administered as a sc bolus. A 1 ml blood sample was drawn from the jugular vein 15 minutes after the injection. For examining blocking effects of the analog on somatostatin, the cyclic peptide was given five minutes prior to somatostatin. GH levels were determined using NIADDKD rat GH RIA components.

insulin release = experiment: Basal hepatic portal insulin levels in fasted rats; type: in vivo, rat; conditions: after treatment, result in words
Excerpt: as §1

somatostatin = experiment: Somatostatin antagonist activity (blocking of exogenous somatostatin effects); type: in vivo, rats; conditions: result in words
glucagon release = experiment: Basal hepatic portal glucagon levels in fasted rats; type: in vivo, rat; conditions: after treatment, result in words
Excerpt: as §1

Structure (SMILES)	plasma growth hormone levels (plasma GH levels; NEMBUTAL-anesthetized and stimulated rats, after injection, result in words)	GH (plasma GH levels; third experiment, dose 0.2 μg/100 g body weight sc, saline 497 ± 80)	GH (plasma GH levels; third experiment, dose 0.2 μg/100 g body weight sc, saline 497 ± 80, listed as cyclo[Pro-Phe-D-Trp-Lys-Thr(Bzl)])	GH (plasma GH levels; third experiment, dose 0.6 μg/100 g body weight sc, saline 497 ± 80)	basal hepatic portal insulin levels (insulin release)	somatostatin antagonist activity (somatostatin)	basal hepatic portal glucagon levels (glucagon release)	GH (plasma GH levels; first experiment, dose 0.4 μg/100 g body weight sc, blood 15 min after injection, saline 389 ± 60)	GH (plasma GH levels; third experiment, dose 0.5 μg/100 g body weight sc, saline 497 ± 80)	GH (ng/ml) (plasma GH levels; first experiment, dose 2 μg/100 g body weight sc, saline 389 ± 60)	GH (plasma GH levels; first experiment, dose 10 μg/100 g body weight sc, saline 389 ± 60)	GH (plasma GH levels; second experiment, dose 0.3 μg/100 g body weight sc, saline 648 ± 177)	GH (plasma GH levels; second experiment, dose 0.3 μg/100 g body weight sc, saline 648 ± 177, listed as cyclo(Pro-Phe-D-Trp-Lys-Thr))	GH (plasma GH levels; second experiment, dose 0.6 μg/100 g body weight sc, saline 648 ± 177)	GH (plasma GH levels; second experiment, dose 1.2 μg/100 g body weight sc, saline 648 ± 177)
C[C@@H](OCc1ccccc1)[C@@H]1NC(=O)[C@H](CCCCN)NC(=O)[C@@H](Cc2c[nH]c3ccccc23)NC(=O)[C@H](Cc2ccccc2)NC(=O)[C@@H]2CCCN2C1=O [Cyclo[Pro--Phe--D-Trp--Lys--Thr(Bzl)], cyclo(L-prolyl-L-phenylalanyl-D-tryptophyl-L-lysyl-O-benzyl-L-threonyl)] (cyclo(F[dW]KT(Bn)P))	increased	1724 ± 393 ng/mL	1724 ± 383 ng/mL	812 ± 163 ng/mL	significantly increased	very effective somatostatin antagonist	significantly increased								
C[C@H](N)C(=O)NCC(=O)N[C@H]1CSSC[C@@H](C(=O)O)NC(=O)[C@H](CO)NC(=O)[C@H]([C@@H](C)O)NC(=O)[C@H](Cc2ccccc2)NC(=O)[C@H]([C@@H](C)O)NC(=O)[C@H](CCCCN)NC(=O)[C@H](Cc2c[nH]c3ccccc23)NC(=O)[C@H](Cc2ccccc2)NC(=O)[C@H](Cc2ccccc2)NC(=O)[C@H](CC(N)=O)NC(=O)[C@H](CCCCN)NC1=O [Somatostatin, somatostatin]								152 ± 51 ng/mL	173 ± 46 ng/mL						
C[C@@H](O)[C@@H]1NC(=O)[C@H](CCCCN)NC(=O)[C@@H](Cc2c[nH]c3ccccc23)NC(=O)[C@H](Cc2ccccc2)NC(=O)[C@@H]2CCCN2C1=O [Cyclo(Pro--Phe--D-Trp--Lys--Thr), cyclo(L-prolyl-L-phenylalanyl-D-tryptophyl-L-lysyl-L-threonyl)] (cyclo(F[dW]KTP))						has somatostatin antagonist activity				730 + 110 ng/ml	459 ± 100 ng/mL	1265 ± 318 ng/mL	1265 ± 318 ng/mL	1072 ± 187 ng/mL	728 ± 143 ng/mL
